From US8822447B2, “Indazole compounds useful as ketohexokinase inhibitors” (Janssen Pharmaceutica NV, priority 2010, dated 2014) come the findings set out here.

Counter-ions that a name gives are not always drawn. Bounds are passed on as bounds.

KHK, sequence (P50053 whole entry): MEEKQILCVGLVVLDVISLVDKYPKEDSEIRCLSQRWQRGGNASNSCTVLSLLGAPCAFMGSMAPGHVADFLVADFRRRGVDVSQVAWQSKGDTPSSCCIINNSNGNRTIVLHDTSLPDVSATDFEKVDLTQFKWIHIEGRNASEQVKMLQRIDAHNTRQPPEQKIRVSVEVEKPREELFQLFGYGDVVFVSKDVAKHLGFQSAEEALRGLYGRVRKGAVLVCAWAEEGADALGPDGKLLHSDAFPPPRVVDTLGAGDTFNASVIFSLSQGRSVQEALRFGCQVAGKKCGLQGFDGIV

This test concerns the target KHK (Homo sapiens (Human), UniProt P50053). Description: In Vitro KHK Enzyme Assay (HTMS).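 Also: primary screen measuring inhibition of KHK-catalysed conversion of D-fructose into fructose 1-phosphate.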 Format: biochemical. Conditions: 200 μM fructose, 100 μM ATP, 2 nM KHK, 60 min at 25° C.; Fructose-1-P detected by high throughput mass spectrometry.
Protocol: An enzymatic assay was developed to measure KHK-mediated conversion of D-fructose to Fructose-1-P (F-1-P) using High Throughput Mass Spectroscopy (HTMS) as a means of product detection. This assay served as a primary screen to evaluate the ability to inhibit KHK enzyme activity and it has been adapted to high throughput mass spectrometry (HTMS, BioTrove RapidFire™) format for higher throughput.
The compounds to be tested were dosed in 12-points concentration from 511 μM to 0.5 μM. […] The assay was carried out in 384-well plate format.
On to `CSc1nn(-c2ccccc2)c2cc(N3CCN(Cc4cccnc4)CC3)ccc12` [Compound 32, 3-(Methylthio)-1-phenyl-6-(4-(pyridin-3-ylmethyl)piperazin-1-yl)-1H-indazole hydrochloride], for which the IC50 turned out to be 6060 nM.

Turning to `CSc1nn(-c2ccccc2)c2cc(N3CCN(C(=O)C4CCCN4)CC3)ccc12` (stereo not drawn) [Compound 33, (4-(3-(Methylthio)-1-phenyl-1H-indazol-6-yl)piperazin-1-yl)(pyrrolidin-2-yl)methanone hydrochloride], the IC50 amounted to 5340 nM.

In turn, `CSc1nn(-c2ccccc2)c2cc(N3CCN(C(=O)C4CCNCC4)CC3)ccc12` [Compound 34, (4-(3-(Methylthio)-1-phenyl-1H-indazol-6-yl)piperazin-1-yl)(piperidin-4-yl)methanone hydrochloride] showed an IC50 of 830 nM.

Consider `CSc1nn(-c2ccccc2)c2cc(N3CCN(C(=O)C4CCCCN4)CC3)ccc12` (stereo not drawn) [Compound 35, (4-(3-(Methylthio)-1-phenyl-1H-indazol-6-yl)piperazin-1-yl)(piperidin-2-yl)methanone], for which the IC50 came out at 430 nM.

The compound `CCc1nn(-c2ccccc2)c2cc(N3CCC(N4CCNCC4)CC3)ccc12` [Compound 36, 3-Ethyl-1-phenyl-6-(4-piperazin-1-yl-piperidin-1-yl)-1H-indazole hydrochloride] displayed an IC50 of 890 nM. Compared with the last compound, the IC50 is about 2.1-fold higher.

`CCc1nn(-c2ccccc2)c2cc(-c3ccc(OC4CCNCC4)cc3)ccc12` [Compound 37, 3-Ethyl-1-phenyl-6-(4-(piperidin-4-yloxy)phenyl)-1H-indazole hydrochloride] displayed an IC50 of 5870 nM.

In the case of `CCc1nn(-c2ccccc2)c2cc(NC(=O)c3ccc4[nH]cnc4c3)ccc12` [Compound 38, N-(3-Ethyl-1-phenyl-1H-indazol-6-yl)-1H-benzo[d]imidazole-5-carboxamide], it took 940 nM to reach half-maximal inhibition (IC50).

For the compound `CCc1nn(-c2ccccc2)c2cc(NC(=O)c3cccc(C(=N)N)c3)ccc12` [Compound 40, 3-Carbamimidoyl-N-(3-ethyl-1-phenyl-1H-indazol-6-yl)benzamide acetate], the IC50 turned out to be 680 nM. The IC50 values of the last two compounds are within 1.5-fold of each other.

With `CCc1nn(-c2ccccc2)c2cc(OC3CN(C4CCNCC4)C3)ccc12` [Compound 41, 3-Ethyl-1-phenyl-6-(1-(piperidin-4-yl)azetidin-3-yloxy)-1H-indazole hydrochloride], the IC50 was above 30000 nM.

The compound `CCc1nn(-c2ccccc2)c2cc(N3CCNCC3)ccc12` [Compound 42, 3-Ethyl-1-phenyl-6-(piperazin-1-yl)-1H-indazole] registered an IC50 of 570 nM.

For the compound `CCc1nn(-c2ccccc2)c2cc(N3CCC(N4CCNCC4)C3)ccc12` (stereo not drawn) [Compound 43, 3-Ethyl-1-phenyl-6-(3-(piperazin-1-yl)pyrrolidin-1-yl)-1H-indazole hydrochloride], the IC50 came to 2350 nM.

`CCc1nn(-c2ccccc2)c2cc(N3CCN(C4CNC4)CC3)ccc12` [Compound 44, 6-(4-(azetidin-3-yl)piperazin-1-yl)-3-ethyl-1-phenyl-1H-indazole hydrochloride] gave an IC50 of 2400 nM.

The compound `CCc1nn(-c2ccccc2)c2cc(N3CCN(C4CCNC4)CC3)ccc12` (stereo not drawn) [Compound 45, 3-Ethyl-1-phenyl-6-(4-(pyrrolidin-3-yl)piperazin-1-yl)-1H-indazole hydrochloride] displayed an IC50 of 2060 nM.

Compound `CCc1nn(-c2ccccc2)c2cc(N3CCN(C4CCNCC4)CC3)ccc12` [Compound 46, 3-Ethyl-1-phenyl-6-(4-(piperidin-4-yl)piperazin-1-yl)-1H-indazole hydrochloride] showed an IC50 of 560 nM. This IC50 lies about 3.7-fold lower than the previous one.

`CCc1nn(-c2ccccc2)c2cc(N3CCN(c4ccncc4)CC3)ccc12` [Compound 47, 3-Ethyl-1-phenyl-6-(4-(pyridin-4-yl)piperazin-1-yl)-1H-indazole hydrochloride] displayed an IC50 of 3510 nM.

Consider `CCc1nn(-c2ccccc2)c2cc(N3CCN(C4CCNC4)C3=O)ccc12` (stereo not drawn) [Compound 48, 1-(3-Ethyl-1-phenyl-1H-indazol-6-yl)-3-(pyrrolidin-3-yl)imidazolidin-2-one hydrochloride], for which the IC50 is 2370 nM.

The compound `CCc1nn(-c2ccccc2)c2cc(N3CCN(C4CCNCC4)C3=O)ccc12` [Compound 49, 1-(3-Ethyl-1-phenyl-1H-indazol-6-yl)-3-(piperidin-4-yl)imidazolidin-2-one hydrochloride] had an IC50 of 1800 nM. The IC50 values of the last two compounds are within 1.5-fold of each other.

Take `CCc1nn(-c2ccccc2)c2cc(N3CC4CNCC4C3)ccc12` (stereo not drawn) [Compound 50, 3-Ethyl-6-(hexahydropyrrolo[3,4-c]pyrrol-2(1H)-yl)-1-phenyl-1H-indazolehydrochloride]: the IC50 stood at 5360 nM. Compared with the last compound, the IC50 is about 3-fold higher.

In the case of `CCc1nn(-c2ccccc2)c2cc(N3CCC4(CCNC4)C3)ccc12` (stereo not drawn) [Compound 51, 6-(2,7-Diaza-spiro[4.4]non-2-yl)-3-ethyl-1-phenyl-1H-indazole hydrochloride], the IC50 came out at 1470 nM.

Compound `CCc1nn(-c2ccccc2)c2cc(-c3ccc(N4CCNCC4)cc3)ccc12` [Compound 52, 3-Ethyl-1-phenyl-6-(4-(piperazin-1-yl)phenyl)-1H-indazole hydrochloride] yielded an IC50 of 9800 nM.

Compound `CCc1nn(-c2ccccc2)c2cc(N3CCN(C)CC3)ccc12` [Compound 54, 3-Ethyl-6-(4-methylpiperazin-1-yl)-1-phenyl-1H-indazole] gave an IC50 of 4520 nM. This IC50 lies about 2.2-fold lower than the previous one.

`CCc1nn(-c2ccccc2)c2cc(N3CCN(CC)CC3)ccc12` [Compound 55, 3-Ethyl-6-(4-ethylpiperazin-1-yl)-1-phenyl-1H-indazole] returned an IC50 of 11500 nM.

For `CCc1nn(-c2ccccc2)c2cc(N3CCNC(C)C3)ccc12` (stereo not drawn) [Compound 56, 3-Ethyl-6-(3-methylpiperazin-1-yl)-1-phenyl-1H-indazole], the IC50 is 860 nM.

`Cc1nn(-c2ccccc2)c2cc(-c3ccc(N4CCNCC4)cc3)ccc12` [Compound 58, 3-Methyl-1-phenyl-6-(4-piperazin-1-yl-phenyl)-1H-indazole hydrochloride]: half-maximal inhibition (IC50) was put at 7500 nM.

In the case of `Cc1nn(-c2ccccc2)c2cc(N3CCNCC3)ccc12` [Compound 59, 3-Methyl-1-phenyl-6-(piperazin-1-yl)-1H-indazole], the IC50 was determined as 1280 nM.

Turning to `Cc1nn(-c2ccccc2)c2cc(N3CC(N4CCNCC4)C3)ccc12` [Compound 60, 3-Methyl-1-phenyl-6-(3-(piperazin-1-yl)azetidin-1-yl)-1H-indazole hydrochloride], inhibition was half-maximal at 2300 nM (IC50).

Regarding `Cc1nn(-c2ccccc2)c2cc(N3CCC(N4CCNCC4)C3)ccc12` (stereo not drawn) [Compound 61, 3-Methyl-1-phenyl-6-(3-(piperazin-1-yl)pyrrolidin-1-yl)-1H-indazole hydrochloride], the IC50 is 1010 nM.

`Cc1nn(-c2ccccc2)c2cc(N3CCN(C4CNC4)CC3)ccc12` [Compound 62, 6-(4-(Azetidin-3-yl)piperazin-1-yl)-3-methyl-1-phenyl-1H-indazole hydrochloride]: the IC50 was found to be 1600 nM.

Consider `Cc1nn(-c2ccccc2)c2cc(N3CCN(C4CCNC4)CC3)ccc12` (stereo not drawn) [Compound 63, 3-Methyl-1-phenyl-6-(4-(pyrrolidin-3-yl)piperazin-1-yl)-1H-indazole hydrochloride], for which the IC50 came to 3750 nM. Against the preceding compound, the IC50 is about 2.3-fold higher.

Turning to `Cc1nn(-c2ccccc2)c2cc(N3CCN(C4CCNCC4)CC3)ccc12` [Compound 64, 3-Methyl-1-phenyl-6-(4-(piperidin-4-yl)piperazin-1-yl)-1H-indazole hydrochloride], half-maximal inhibition (IC50) required 9060 nM.

By IC50 is commonly meant the point on the concentration scale where inhibition reaches its midpoint. A low value points to greater potency.
